The results in this text go back to patent publication US9119848B2, “Morphinan derivatives for the treatment of drug overdose” (Alkermes Pharma Ireland Limited, priority 2009, dated 2015).

Molecules are shown by their SMILES.

The subject of series [1] is opioid dependent, opioid experienced subject. The series can be described thus: Compound-1 after REMI challenge in an opioid dependent, opioid experienced subject. Conditions: 10 mg on Day 2, one opioid dependent subject.
Series [2] in a line: Elimination of Compound-1 in study subjects.

For orientation: half-life means the time needed for the level to fall by half in the phase considered. The low end stands for rapid decline, the high end for slow decline.

For the compound `NC(=O)c1ccc2c(c1O)[C@]13CCN(CC4CC4)[C@H](C2)[C@]1(O)CCC(=O)C3` [Compound-1], the “time to severe drug withdrawal post-dosing” value in series [1] came to 2 min. In series [2] (by 4 days post-dose), the “fraction of Compound-1 eliminated” value was “more than 99%”. The compound further had a half-life in series [2] (human, in vivo, 20 mg) of 7 h.
